In patent US20200253877A1, “GEMCABENE, PHARMACEUTICALLY ACCEPTABLE SALTS THEREOF, COMPOSITIONS THEREOF AND METHODS OF USE THEREFOR” (NEUROBO PHARMACEUTICALS, INC., priority 2018, published 2020):

System: hepatic mRNA expression in STAM™ mice
Experiment: Murine STAM model of NASH-HCC: hepatic gene expression by quantitative RT-PCR
Format: in vivo, mouse
Settings: for ACC1 gene expression (mean ± SD) / ACC2 gene expression (mean ± SD) / ADH-4 gene expression (mean ± SD) / ANGPTL3 gene expression (mean ± SD) / ANGPTL4 gene expression (mean ± SD) / ANGPTL8 gene expression (mean ± SD) / ApoC-III gene expression (mean ± SD) / CCR2 gene expression (mean ± SD) / CCR5 gene expression (mean ± SD) / CRP gene expression (mean ± SD) / CXCL1/KC gene expression (mean ± SD) / Fetuin-A gene expression (mean ± SD) / IL-1β gene expression (mean ± SD) / IL-6 gene expression (mean ± SD) / LDL receptor gene expression (mean ± SD) / LPL gene expression (mean ± SD) / MCP-1 gene expression (mean ± SD) / MIP-1β gene expression (mean ± SD) / MMP-2 gene expression (mean ± SD) / NF-κB gene expression (mean ± SD) / PNPLA3 gene expression (mean ± SD) / SCD1 gene expression (mean ± SD) / SREBP-1 gene expression (mean ± SD) / Sulf-2 gene expression (mean ± SD) / TIMP-1 gene expression (mean ± SD) / TNF-α gene expression (mean ± SD) / α-SMA gene expression (mean ± SD): normalized to non-treated group
Protocol: A study was performed to evaluate the efficacy of gemcabene calcium salt hydrate Crystal Form 1 having a PSD90 of 52 μm as measured by laser light diffraction, in treating non-alcoholic steatosis hepatitis (NASH) in the murine STAM™ model of NASH-HCC.
Briefly, two-day old neonatal C57BL/6 male mice were administered low-dose streptozotocin (STZ), and were subsequently fed a HFC diet from 4 weeks of age. In this model, the mice typically develop liver steatosis and diabetes, reaching steatohepatitis within 3 weeks, followed by cirrhosis within 8 weeks, and carcinoma within 16 weeks. In the current study, mice were administered daily oral gemcabene calcium salt hydrate Crystal Form 1 starting at week 6 of age and were sacrificed at week 9. […] These STAM™ groups were orally administered from week 6 one of the following: water-vehicle, gemcabene calcium salt hydrate Crystal Form 1 at 30, 100 and 300 mg/kg daily, or telmisartan ([…]®) 10 mg/kg daily. […] All groups were sacrificed at week 9. Vehicle, gemcabene calcium salt hydrate Crystal Form 1, or telmisartan were administered by oral gavage once daily.
Various gene expression markers of liver metabolism were evaluated by Real-Time PCR (RT-PCR) in all mouse groups. Total RNA was extracted from liver samples using RNAiso (Takara Bio, Japan) according to the manufacturer's instructions. […] of RNA was reverse-transcribed using a reaction mixture containing 4.4 mM MgCl2 (F. Hoffmann-La Roche, Switzerland), 40 U RNase inhibitor (Toyobo, Japan), 0.5 mM dNTP (Promega, USA), 6.28 μM random hexamer (Promega), 5×first strand buffer (Promega), 10 mM dithiothreitol (Invitrogen, USA) and 200 U MMLV-RT (Invitrogen) in a final volume of 20 μL. The reaction was carried out for 1 hour at 37° C., followed by 5 minutes at 99° C. Real-time PCR was performed using real-time PCR DICE and SYBR premix Taq (Takara Bio). To calculate the relative mRNA expression level, the expression of each gene was normalized to that of reference gene 36B4 (gene symbol: RplpO). Information of PCR-primer sets is described in Tables 37A-37C. Statistical analyses were performed using the Bonferroni Multiple Comparison Test on GraphPad Prism 6 (GraphPad Software Inc., USA). P values <0.05 were considered statistically significant. Results are expressed as mean±SD.
In order to calculate the relative mRNA expression level, the expression of each gene was normalized to that of the reference gene 36B4 (gene symbol: RplpO). The gene expression levels were measured by quantitative RT-PCR. Results were normalized with values for the vehicle-treated normal group. […] Gemcabene calcium salt hydrate Crystal Form 1 (PSD90=52 μm) modulated the mRNA expression of many hepatic genes that play a significant role in the liver homeostasis and injury.

[1] = gemcabene Form 1 100 mg/kg, telmisartan 10 mg/kg
[2] = vs Vehicle in NASH group, gemcabene Form 1 100 and 300 mg/kg, telmisartan 10 mg/kg

## CC(C)(CCCCOCCCCC(C)(C)C(=O)O)C(=O)O [gemcabene, 6-(5-carboxy-5-methyl-hexyloxy)-2,2-dimethyl-hexanoic acid]
30 mg/kg, n = 8, STAM mice
  ACC1 gene expression (mean ± SD): 1.0 ± 0.1
  ACC2 gene expression (mean ± SD): 0.6 ± 0.2
  ADH-4 gene expression (mean ± SD): 0.8 ± 0.2
  ANGPTL3 gene expression (mean ± SD): 0.7 ± 0.2
  ANGPTL4 gene expression (mean ± SD): 2.9 ± 0.5
  ANGPTL8 gene expression (mean ± SD): 0.3 ± 0.1
  ApoC-III gene expression (mean ± SD): 0.7 ± 0.1
  CCR2 gene expression (mean ± SD): 3.3 ± 1.0
  CCR5 gene expression (mean ± SD): 2.4 ± 0.9
  CRP gene expression (mean ± SD): 0.9 ± 0.2
  CXCL1/KC gene expression (mean ± SD): 0.8 ± 0.4
  Fetuin-A gene expression (mean ± SD): 1.1 ± 0.4
  IL-1β gene expression (mean ± SD): 1.0 ± 0.5
  IL-6 gene expression (mean ± SD): 4.6 ± 4.7
  LDL receptor gene expression (mean ± SD): 0.9 ± 0.2
  LPL gene expression (mean ± SD): 3.8 ± 0.9
  MCP-1 gene expression (mean ± SD): 3.2 ± 1.5
  MIP-1β gene expression (mean ± SD): 5.4 ± 3.2
  MMP-2 gene expression (mean ± SD): 1.7 ± 0.5
  NF-κB gene expression (mean ± SD): 1.3 ± 0.2
  PNPLA3 gene expression (mean ± SD): 0.3 ± 0.1
  SCD1 gene expression (mean ± SD): 0.2 ± 0.1
  SREBP-1 gene expression (mean ± SD): 0.9 ± 0.2
  Sulf-2 gene expression (mean ± SD): 5.1 ± 1.1
  TIMP-1 gene expression (mean ± SD): 9.9 ± 4.9
  TNF-α gene expression (mean ± SD): 4.0 ± 1.8
  α-SMA gene expression (mean ± SD): 2.6 ± 0.6
100 mg/kg, n = 8, STAM mice
  ACC1 gene expression (mean ± SD): 0.7 ± 0.1
  ACC2 gene expression (mean ± SD): 0.4 ± 0.1
  ADH-4 gene expression (mean ± SD): 0.6 ± 0.1
  ANGPTL3 gene expression (mean ± SD): 0.4 ± 0.1
  ANGPTL4 gene expression (mean ± SD): 1.6 ± 0.3
  ANGPTL8 gene expression (mean ± SD): 0.4 ± 0.1
  ApoC-III gene expression (mean ± SD): 0.5 ± 0.0
  CCR2 gene expression (mean ± SD): 1.6 ± 0.4
  CCR5 gene expression (mean ± SD): 1.4 ± 0.3
  CRP gene expression (mean ± SD): 0.6 ± 0.1
  CXCL1/KC gene expression (mean ± SD): 0.2 ± 0.1
  Fetuin-A gene expression (mean ± SD): 0.7 ± 0.1
  IL-1β gene expression (mean ± SD): 1.1 ± 0.5
  IL-6 gene expression (mean ± SD): 0.9 ± 0.3
  LDL receptor gene expression (mean ± SD): 0.9 ± 0.2
  LPL gene expression (mean ± SD): 7.4 ± 0.9
  MCP-1 gene expression (mean ± SD): 1.7 ± 0.7
  MIP-1β gene expression (mean ± SD): 2.3 ± 0.9
  MMP-2 gene expression (mean ± SD): 0.5 ± 0.2
  NF-κB gene expression (mean ± SD): 0.9 ± 0.1
  PNPLA3 gene expression (mean ± SD): 0.2 ± 0.1
  SCD1 gene expression (mean ± SD): 0.3 ± 0.1
  SREBP-1 gene expression (mean ± SD): 0.9 ± 0.2
  Sulf-2 gene expression (mean ± SD): 3.8 ± 0.7
  TIMP-1 gene expression (mean ± SD): 3.8 ± 1.6
  TNF-α gene expression (mean ± SD): 2.0 ± 0.8
  α-SMA gene expression (mean ± SD): 2.4 ± 0.9
300 mg/kg, n = 8, STAM mice
  ACC1 gene expression (mean ± SD): 0.8 ± 0.1
  ACC2 gene expression (mean ± SD): 0.5 ± 0.1
  ADH-4 gene expression (mean ± SD): 0.5 ± 0.1
  ANGPTL3 gene expression (mean ± SD): 0.4 ± 0.1
  ANGPTL4 gene expression (mean ± SD): 1.7 ± 0.3
  ANGPTL8 gene expression (mean ± SD): 0.2 ± 0.1
  ApoC-III gene expression (mean ± SD): 0.4 ± 0.1
  CCR2 gene expression (mean ± SD): 1.7 ± 0.7
  CCR5 gene expression (mean ± SD): 1.3 ± 0.3
  CRP gene expression (mean ± SD): 0.5 ± 0.1
  CXCL1/KC gene expression (mean ± SD): 0.2 ± 0.1
  Fetuin-A gene expression (mean ± SD): 0.7 ± 0.1
  IL-1β gene expression (mean ± SD): 0.7 ± 0.3
  IL-6 gene expression (mean ± SD): 0.6 ± 0.2
  LDL receptor gene expression (mean ± SD): 0.8 ± 0.1
  LPL gene expression (mean ± SD): 6.9 ± 1.1
  MCP-1 gene expression (mean ± SD): 1.6 ± 0.7
  MIP-1β gene expression (mean ± SD): 2.8 ± 1.4
  MMP-2 gene expression (mean ± SD): 0.9 ± 0.2
  NF-κB gene expression (mean ± SD): 0.8 ± 0.1
  PNPLA3 gene expression (mean ± SD): 0.2 ± 0.2
  SCD1 gene expression (mean ± SD): 0.4 ± 0.2
  SREBP-1 gene expression (mean ± SD): 0.7 ± 0.1
  Sulf-2 gene expression (mean ± SD): 3.3 ± 0.9
  TIMP-1 gene expression (mean ± SD): 4.4 ± 2.1
  TNF-α gene expression (mean ± SD): 1.9 ± 0.7
  α-SMA gene expression (mean ± SD): 2.5 ± 0.7

## CCCc1nc2c(C)cc(-c3nc4ccccc4n3C)cc2n1Cc1ccc(-c2ccccc2C(=O)O)cc1 [telmisartan, reference compound]
10 mg/kg, n = 7, STAM mice
  ACC1 gene expression (mean ± SD): 0.7 ± 0.1
  ACC2 gene expression (mean ± SD): 0.3 ± 0.1
  ADH-4 gene expression (mean ± SD): 0.6 ± 0.2
  ANGPTL3 gene expression (mean ± SD): 0.7 ± 0.2
  ANGPTL4 gene expression (mean ± SD): 2.1 ± 0.3
  ANGPTL8 gene expression (mean ± SD): 0.3 ± 0.1
  ApoC-III gene expression (mean ± SD): 0.8 ± 0.2
  CCR2 gene expression (mean ± SD): 2.4 ± 0.8
  CCR5 gene expression (mean ± SD): 1.5 ± 0.3
  CRP gene expression (mean ± SD): 0.9 ± 0.1
  CXCL1/KC gene expression (mean ± SD): 0.6 ± 0.3
  Fetuin-A gene expression (mean ± SD): 1.0 ± 0.1
  IL-1β gene expression (mean ± SD): 0.7 ± 0.2
  IL-6 gene expression (mean ± SD): 0.8 ± 0.4
  LDL receptor gene expression (mean ± SD): 0.7 ± 0.3
  LPL gene expression (mean ± SD): 2.4 ± 0.5
  MCP-1 gene expression (mean ± SD): 2.1 ± 1.0
  MIP-1β gene expression (mean ± SD): 3.9 ± 1.5
  MMP-2 gene expression (mean ± SD): 1.4 ± 0.7
  NF-κB gene expression (mean ± SD): 1.1 ± 0.1
  PNPLA3 gene expression (mean ± SD): 0.1 ± 0.0
  SCD1 gene expression (mean ± SD): 0.1 ± 0.0
  SREBP-1 gene expression (mean ± SD): 0.7 ± 0.2
  Sulf-2 gene expression (mean ± SD): 3.9 ± 0.9
  TIMP-1 gene expression (mean ± SD): 8.6 ± 5.1
  TNF-α gene expression (mean ± SD): 3.0 ± 1.2
  α-SMA gene expression (mean ± SD): 2.3 ± 0.7
STAM mice
  LDL receptor gene expression: no effect
[1]
  ACC-1 mRNA expression (relative, mean±SD): 0.7±0.1
  ADH-4 mRNA expression (relative, mean±SD): 0.6±0.2
  CCR2 mRNA expression (relative, mean±SD): 2.4±0.8
  CCR5 mRNA expression (relative, mean±SD): 1.5±0.3
  CRP mRNA levels (relative, mean±SD): No significant differences
  MCP-1 mRNA expression (relative, mean±SD): 2.1±1.0
  MIP-1β mRNA levels (relative, mean±SD): 3.9±1.5
Vs Vehicle in NASH group, gemcabene Form 1 30, 100 and 300 mg/kg, telmisartan 10 mg/kg
  hepatic LPL mRNA expression levels: no significant difference
[2]
  ANGPTL4 mRNA expression levels: significant down-regulations
  IL-6 mRNA expression level: significant down-regulations
